Assay results as given in article PMC3763380, “Cellular-Level Versus Receptor-Level Response Threshold Hierarchies in T-Cell Activation” (Frontiers in Immunology, 2013).

What was measured:
CTL clone ILA1 = test: Bioassay: ILA1 CTL response to peptide-pulsed C1R-A2null targets (CD8-null HLA-A2), flow cytometry; assay type: cell-based; conditions: read-outs CD107a, MIP-1β, TNF-α, IL-2, IFN-γ
Description: Stable C1R transfectants expressing wild-type HLA-A2 (C1R-A2) or CD8-null HLA-A2 (C1R-A2null), the α3 domain of which contains the double mutation D227K/T228A that abrogates CD8 binding ([30]), were pulsed with peptide as indicated for 1 h at 37°C. For each condition, assays were set up simultaneously in 96-well plates using 4.5 × 10^5 C1R cells per well, thereby ensuring that all cellular parameters were consistent across ligand stimulations. Subsequently, brefeldin A (10 μg/ml; BD Biosciences) and monensin (0.7 μl/ml; BD Biosciences) were added together with a pre-titred concentration of the directly conjugated monoclonal antibody (mAb) αCD107a-FITC [BD Pharmingen; Ref. ([31])]. […]
Stained cell samples were acquired and recorded using a customized FACS Aria II flow cytometer (BD Biosciences) equipped for the simultaneous detection of 18 fluorescent parameters. […] The following gating tree was applied: (i) single cells were identified based on their light scatter properties; (ii) Boolean gating was carried out to exclude artifacts and fluorochrome aggregates; (iii) viable CD3^+CD19^− events were selected; (iv) outliers were eliminated in a side-scatter versus CD3 display; and (v) gates were set on cells positive for individual functional read-outs. […]

ILA1 TCR = conditions: SPR, ILA1 TCR/pMHCI; not first reported here (footnote Table 1); ligands largely characterized previously; ref [27], [28]; cited from earlier work
Description: Table 1 Biophysical parameters. | column: On-rate (M^−1s^−1); Off-rate (s^−1); KD (M) || Figure 3 Functional variation at the cell population level in response to six different peptide ligands. The CTL clone ILA1 was stimulated for 6 h with peptide-pulsed C1R-A2 targets as indicated. Five functional read-outs (CD107a, MIP-1β, TNF-α, IL-2, and IFN-γ) were measured via flow cytometry. […] (A) Overview of functional profiles. Pie chart segments represent the fraction of cells expressing the number of functions indicated in the key. (B) Detailed analysis of functional profiles at [peptide] = 10^−6 M. Pie charts are extended with arc ...

ILAKFLHWL [residues 540–548 (…) of the human telomerase reverse transcriptase protein]
responses at sufficiently high presentation levels (CTL clone ILA1): strongly attenuated but discernible responses
Kd (ILA1 TCR): 32 µM
Off-rate (ILA1 TCR): 0.13 s⁻¹
On-rate (ILA1 TCR): 4,100 M^−1s^−1
